Measured values: patent US4698341A, “Use of 1,6-naphthyridinone derivatives in treating pulmonary thrombosis” (Godecke Aktiengesellschaft, priority 1983, dated 1987)
Where two headings read alike, the source gives them in different places.

Experiments:
[1] = system: Collagen-induced thrombocyte aggregation (platelet-rich plasma); test: Collagen-induced thrombocyte aggregation in vitro (rat); type: cell-based, rat (male Sprague Dawley SIV 50); conditions: read-out: IC50 value, collagen-induced thrombocyte aggregation
Description: (§1) Collagen or ADP-induced thrombocyte aggregation in vitro (rat)
(§2) The test was carried out according to the method of BORN (Nature 194, 927-929, 1962). […] Blood was withdrawn from the postorbital venous plexus under ether anesthesia. Nine aliquots of blood were mixed with one aliquot of 3.8% (w/v) tri-Na-citrate solution. After low speed centrifugation of the mixture at room temperature, the platelet-rich plasma (PRP corresponding to the erythrocyte-frree supernatant) was removed and adjusted to a standard concentration of 400 000/μl. A universal aggregometer (Braun, Melsungen) connected with an Eppendorf photometer 1100M (Netheler and Hinz, Hamburg) was used as a measuring instrument. In this test portions of 700 μl of platelet-rich plasma (PRP) were equilibrated in the aggregometer at 37° C. for five minutes and then mixed with 58 μl of the test substance solution or with a 0.9% NaCl solution (corresponding to the blank value). After an incubation time of three minutes, the addition of 35 μl collagen suspension (collagen reagent HORM(®), Hormon Chemie, Munich) or 20 μl ADP solution (end concentration in the test 1×10^-5 mol/liter) causes aggregation. A compensation recorder recorded the change in transmission during the following 15 minutes.
(§3) The largest change in transmission occurring in this period was called amplitude (amp) of the aggregation curve. Aggregation-inhibiting substances produce a decrease of this amplitude; the inhibitory effect (E) of a substance is calculated according to the following formula:
(§4) E=(Ampbank value -AMPtest substance)/Ampblank value
(§5) Dose-effect curves were drawn for calculating the IC50 values.

[2] = system: ADP-induced thrombocyte aggregation (platelet-rich plasma); test: ADP-induced thrombocyte aggregation in vitro (rat); type: cell-based, rat (male Sprague Dawley SIV 50); conditions: read-out: IC50 value, ADP-induced thrombocyte aggregation
Description: as §1, §2, §3, §4, §5

tenia coli (guinea pig) = test: Ca2+ effect on the smooth muscles, tenia coli, inhibition of contraction amplitude; type: cell-based; conditions: Cavia porcellus, 10 min, 32° C.; for inhibition: 3·10^-5 mol/l
Description: 1. Ca^2+ effect on the smooth muscles
Approximately 10 mm long, freshly isolated pieces of the tenia coli (guinea pig) were encircled at both ends with threads and connected with a mechanico-technical transducer in the organ bath (32° C., bubbled through with carbogen). Five to ten mN (0.5-1 p) were selected as mechanical pretension. […] This solution was exchanged for K+-rich and Ca++-free solution (40 mmol/l) KCl for depolarization of the cell membrane, the NaCl concentration being decreased correspondingly. One mmol/l CaCl2 was added to the nutrient solution under equilibrium conditions, resulting in a contraction of the muscle preparation. After reaching the new equilibration the test substance was added to the organ bath.
The percentage inhibition of the contraction amplitude after a ten-minute time of action of the test substance, related to the amplitude prior to administration of the substance, was calculated as substance effect. Each substance was tested in two preparations.

[3] = system: left atrium of guinea pig; test: Isolated left atrium of guinea pigs, inhibition of contraction amplitude; type: cell-based; conditions: Cavia porcellus; approximate values from four atriums, 35° C., 100 imp/min
Description: 2. Isolated atriums of guinea pigs
In a thermostated (35° C.) dissecting dish containing modified nutrient solution acc. to Krebs-Henseleit the left atrium was cautiously separated from the ventricle myocardium by means of scissors and a needle with thread passed through the apex of the atrium and knotted. Subsequently, the basis of the atrium was fastened to the hook of a preparation holder and transferred to a thermostated organ bath containing nutrient solution (25 ml, 35° C.). In the organ bath the thread at the apex of the atrium was attached to a mechanicoelectric transducer. Electrical stimulation was effected supramaximally with a frequency of 100 imp/min (stimulation range 2.5 msec). The hook of the preparation holder represented an electrode, whereas the second electrode was designed as field electrode in the preparation holder parallel to the tensioned atrium.
The substances were cumulatively added to the organ bath at intervals of four minutes.

[4] = rat PRP 400 000/μl, 37° C., collagen, Arith. M±S.D.
[5] = rat PRP 400 000/μl, 37° C., ADP 1×10^-5 mol/liter, Arith. M±S.D.

CCOC(=O)C1=C(C)Nc2ccn(CCCN3CCCCC3)c(=O)c2C1c1cccc([N+](=O)[O-])c1 (stereo not drawn) [Example 4 f., 1,4,5,6-Tetrahydro-2-methyl-4-(3-nitrophenyl)-5-oxo-6-(3-piperidinopropyl)-1,6-naphthyridine-3-carboxylic acid ethyl ester]
IC50 [1, 4]: 70 ± 10 µM
IC50 [2, 5]: 240 ± 10 µM
inhibition (tenia coli (guinea pig)): 79 ± 3%
IC50 [3]: 100 µM

COc1ccc(CCN(C)CCCC(C#N)(c2ccc(OC)c(OC)c2)C(C)C)cc1OC (stereo not drawn) [Verapamil, reference compound]
IC50 ([1]; Rattus norvegicus): 210 ± 20 µM
IC50 ([2]; Rattus norvegicus): 560 ± 60 µM
inhibition at 1 µM (tenia coli (guinea pig); 10^-6 mol/l): 100%
IC50 [3]: 2 µM

CCOC(=O)C1=C(C)Nc2ccn(CCCN3CCCCC3)c(=O)c2C1c1cccc(Cl)c1 (stereo not drawn) [Example 4 c., 1,4,5,6-Tetrahydro-4-(3-chlorophenyl)-2-methyl-5-oxo-6-(3-piperidinopropyl)-1,6-naphthyridine-3-carboxylic acid ethyl ester]
IC50 [1, 4]: 60 ± 10 µM
IC50 [2, 5]: 180 ± 10 µM
inhibition (tenia coli (guinea pig)): 44 ± 6%
IC50 [3]: 300 µM

CCOC(=O)C1=C(C)Nc2ccn(CCCN(C)C)c(=O)c2C1c1cccc(Cl)c1 (stereo not drawn) [Example 4 b., 1,4,5,6-Tetrahydro-4-(3-chlorophenyl)-6-(3-dimethylaminopropyl)-2-methyl-5-oxo-1,6-naphthyridine-3-carboxylic acid ethyl ester]
IC50 [1, 4]: 160 ± 10 µM
IC50 [2, 5]: 410 ± 50 µM
inhibition (tenia coli (guinea pig)): 57 ± 7%
IC50 [3]: 300 µM

CCOC(=O)C1=C(C)Nc2ccn(CCCN(C)C)c(=O)c2C1c1cccc([N+](=O)[O-])c1 (stereo not drawn) [Example 2, 1,4,5,6-Tetrahydro-6-(3-dimethylaminopropyl)-2-methyl-4-(3-nitrophenyl)-5-oxo-1,6-naphthyridine-3-carboxylic acid ethyl ester]
IC50 [1, 4]: 160 ± 10 µM
IC50 [2, 5]: 510 ± 40 µM
inhibition (tenia coli (guinea pig)): 88 ± 12%
IC50 [3]: 300 µM

CCOC(=O)C1=C(C)Nc2ccn(CCCN3CCCCC3)c(=O)c2C1c1ccccc1Cl (stereo not drawn) [Example 4 e., 1,4,5,6-Tetrahydro-4-(2-chlorophenyl)-2-methyl-5-oxo-6-(3-piperidinopropyl)-1,6-naphthyridine-3-carboxylic acid ethyl ester.1/2 ethyl acetate]
IC50 [1, 4]: 160 ± 20 µM
IC50 [2, 5]: 330 ± 20 µM
inhibition (tenia coli (guinea pig)): 81 ± 5%
IC50 [3]: 100 µM
